Experimental data as given in paper PMC5641551, “Chemical Proteomics for Target Discovery of Head-to-Tail Cyclized Mini-Proteins” (Frontiers in Chemistry, 2017).
No end group written: not given here.

What was measured:
[1] = test system: 14-3-3 proteins in living Jurkat cells; test: photo-affinity pull down on living Jurkat cells with competitor; type: binding, human; conditions: 2 h incubation with bait, [T20K]kB1 competitor at 60-fold molar excess, UV irradiation
Description: Biotin-LC-LC-labeled (ThermoFisher) peptides (1–5 nmoles) with or without (non-biotinylated) competitor ([…]) for 2 h at 4°C in the presence of protease inhibitors. UV-activation of photo-crosslinking moiety benzophenone was induced by irradiation at 360 nm on ice for 15 min (Stratalinker, Stratagene, CA, United States). Streptavidin-coated magnetic nanobeads 2–4 mg (1–3-fold excess of binding capacity to applied biotin-bait) facilitated the precipitation (Hyglos, Bernried, Germany). The binding could proceed overnight at 4°C. The supernatants were removed and the beads were washed several times, unless stated otherwise and used for SDS-PAGE, unless stated otherwise. For cyclotide experiments the following peptides were used: biotinylated [T20K]kB1 or [T20K,W23Bpa]kB1 as bait and [T20K]kB1, [T20K,W23Bpa]kB1, or R18 ([…]; Sigma Aldrich), a 14-3-3 family specific peptide inhibitor, as competitors. Generally, beads were washed with lysis buffer containing 1% (v/v) Triton-X100 and 0.2% SDS (w/v) and protease inhibitor cocktail for 3 h followed by wash with 0.12 mM phosphate buffered high saline (PBhS) pH 7.4, 1 M NaCl and 12 mM KCl, 1 mM EDTA for 2 h. Lastly, the beads were washed three times for 5 min with lysis buffer. […] Peptide-protein co-precipitations of 14-3-3 proteins and cyclotides were analyzed with GST-tagged 14-3-3β protein (0.25 μg; EnzoLifeSciences, New York, United States). […]

EAE disease in mice = conditions: cited from earlier work
Description: 14-3-3s are ubiquitous adaptor proteins that are involved in cell signaling, cell cycle progression and apoptosis as well as protein-protein interaction and cellular transport (Aghazadeh and Papadopoulos, [2016]). The 14-3-3 family is often described as a chimera, since knockout of single isoforms may remain without or with minor phenotypic changes due to functional rescue through the recruitment of other family members. […] Many tumor suppressors or oncogenes are regulated by 14-3- ... || Meanwhile, plant-derived cyclotides are recognized for their pharmaceutical potential. […] Additionally, cyclotides are considered as promising templates for the design of stabilized, orally active peptide epitopes (Jagadish and Camarero, [2010]; Craik et al., [2012]). The cystine-knot motif is capable of tolerance to the incorporation of several amino acid long sequences without impacting its endogenous structure and stability. Using this ...

IL-2 in T-lymphocytes = conditions: reference not given; cited from earlier work
Description: 14-3-3s are ubiquitous adaptor proteins that are involved in cell signaling, cell cycle progression and apoptosis as well as protein-protein interaction and cellular transport (Aghazadeh and Papadopoulos, [2016]). The 14-3-3 family is often described as a chimera, since knockout of single isoforms may remain without or with minor phenotypic changes due to functional rescue through the recruitment of other family members. […] Many tumor suppressors or oncogenes are regulated by 14-3- ...

CGETCVGGTCNTPGCKCSWPVCTRNGLPV (also: bicyclic or more (positions not given here)) [[T20K]kB1, synthetic cyclotide drug candidate, Thr20 to Lys mutant of kalata B1]
retention of labeled 14-3-3 proteins on affinity beads in presence of competitor [1]: competitively reduced | progression of typical symptoms in mouse model of multiple sclerosis (EAE disease in mice; oral administration, ref Thell et al., 2016): halted the progression of typical symptoms | symptoms of the EAE disease in mice (EAE disease in mice; reported, reference not given): reduce the symptoms of the EAE disease in mice | regulatory cytokines such as IL-2 in T-lymphocytes of treated animals (IL-2 in T-lymphocytes): significantly downregulated
